As usually defined, the IC50 is the concentration that gives 50% inhibition. What is called inhibition is the relative decrease from the control value, in per cent.

For assay [1], the target named is T1, TDG (Homo sapiens, UniProt Q13569). Nature of the assay: Inhibition of TDG mismatch repair activity (fluorescent G·U double-stranded DNA probe T1-T2). Format: biochemical. To be noted: TDG 100 nM/L, preincubated with compound 37° C. 30 minutes; probe 30 nM; read-out: Inhibitory activity on TDG mismatch repair IC50. An outline of the steps: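 TDG (100 nM/L) preincubated with compound 30 min at 37 °C in 20 mM HEPES pH7.5, 100 mM NaCl, 0.2 mM EDTA, 2.5 mM MgCl2, then 30 nM FAM/biotin G·U probe for 30 min at 25 °C. After streptavidin bead capture and 200 mM NaOH, supernatant fluorescence read at 485/520 nm; IC50 determined.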

The target of assay [2] is T1, TDG. Nature of the assay: TDG inhibitory activity of compounds in cells (caC-cmv-firefly luciferase reporter, HEK 293T TDG KO cells transfected with pCDNA4-TDG). To be noted: read-out: Inhibition rate on TDG activity. Format: cell-based. An outline of the steps:
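TDG-knockout HEK 293T cells co-transfected with an in vitro Tet1-oxidised, 5caC-modified CMV-firefly reporter, a Renilla control and a TDG (or empty myc) plasmid, then treated with compounds for 72 h at 37°C. Firefly/Renilla ratio gives relative TDG activity inhibition, with activity bins set at 10 μM.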

Assay [3] has as its system Lung cancer cell line Calu-1. Nature of the assay: Inhibition of the growth of Calu-1 cells (CellTiter-Glo, 72 hours). Format: cell-based. Conditions: Homo sapiens, 72 hours of culturing, read-out: Inhibitory activity on alu-1 cell growth IC50. An outline of the steps: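 Calu-1 cells in McCoy's 5A with 10% FBS, seeded at 500 cells/well and dosed the next day at 0.1% DMSO final. Viability was read by CellTiter-Glo 2.0 luminescence after 72 h at 37° C. Activity class: ++ for IC50 ≤5 μM, + for IC50 >5 μM.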
In general terms: Cellular ATP, detected with luciferase, serves as a proxy for viable cell number.

T1 sequence (Q13569 whole entry): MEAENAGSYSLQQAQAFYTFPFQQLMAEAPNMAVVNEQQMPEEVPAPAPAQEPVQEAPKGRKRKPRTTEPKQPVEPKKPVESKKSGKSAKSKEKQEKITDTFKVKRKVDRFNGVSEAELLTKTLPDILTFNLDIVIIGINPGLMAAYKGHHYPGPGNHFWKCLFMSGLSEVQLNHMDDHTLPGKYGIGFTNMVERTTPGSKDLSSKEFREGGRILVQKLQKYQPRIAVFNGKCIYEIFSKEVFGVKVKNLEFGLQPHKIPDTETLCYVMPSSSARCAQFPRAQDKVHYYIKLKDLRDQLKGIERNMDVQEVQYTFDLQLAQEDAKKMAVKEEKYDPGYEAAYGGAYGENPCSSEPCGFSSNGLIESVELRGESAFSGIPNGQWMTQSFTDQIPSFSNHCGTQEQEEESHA

For the compound `O=C(CCN1Cc2ccc(Br)cc2C1)c1ccc2c(c1)OCCO2` [Compound 3, 3-(5-bromoisoindolin-2-yl)-1-(2,3-dihydrobenzo[b][1,4]dioxin-6-yl)propan-1-one], the concentration for half-maximal inhibition (IC50) at TDG [1] is at most 5 µM; in assay [3], above 5 µM. In addition, the inhibition at 10 µM on TDG [2] was below 25%.

`O=C(CCN1Cc2ccccc2C1)c1ccc2c(c1)CCCN2` [Compound 30, 3-(isoindolin-2-yl)-1-(1,2,3,4-tetrahydroquinolin-6-yl)propan-1-one]: the IC50 (on TDG [1]; in assay [3]) was above 5 µM each time. In addition, at TDG [2], the inhibition at 10 µM is below 25%.

With `O=C(CCN1Cc2ccccc2C1)c1ccc2c(c1)C(=O)CCO2` [Compound 36, 6-(3-(isoindolin-2-yl)propionyl)chroman-4-one], the 50% inhibitory concentration (IC50) (at TDG [1]; in assay [3]) was at most 5 µM each time. The inhibition at 10 µM at TDG [2] was below 25%.

Turning to `O=C(CCN1CCC(c2ccccc2)CC1)c1ccc2c(c1)OCCO2` [Compound 21, 1-(2,3-dihydrobenzo[b][1,4]dioxin-6-yl)-3-(4-phenylpiperidin-1-yl)propan-1-one], the IC50 at TDG [1] is at most 5 µM; in assay [3] it was above 5 µM. The inhibition at 10 µM on TDG [2] is below 25%.

Take `O=C(CCN1Cc2ccccc2C1)c1ccc2c(c1)SCCO2` [Compound 37, 1-(2,3-dihydrobenzo[b][1,4]oxathion-6-yl)-3-(isoindolin-2-yl)propan-1-one]: the IC50 (at TDG [1]; in assay [3]) was above 5 µM in each case. Further, on TDG [2], the inhibition at 10 µM is below 25%.

Consider `O=C(CCCN1Cc2ccccc2C1)c1ccc2c(c1)OCCO2` [Compound 31, 1-(2,3-dihydrobenzo[b][1,4]dioxin-6-yl)-4-(isoindolin-2-yl)butan-1-one], for which the IC50 (at TDG [1]; in assay [3]) was above 5 µM in each case. Further, on TDG [2], the inhibition at 10 µM is below 25%.

For the compound `O=C(CCN1Cc2ccccc2C1)c1ccc2c(c1)CCO2` [Compound 34, 1-(2,3-dihydrobenzofuran-5-yl)-3-(isoindolin-2-yl)propan-1-one], the IC50 (at TDG [1]; in assay [3]) was above 5 µM in each case. Besides, the inhibition at 10 µM on TDG [2] is below 25%.

Take `O=C(CCN1CCc2ccccc2C(O)(c2ccc(F)cc2)C1)c1ccc2c(c1)C(=O)CCO2` (stereo not drawn) [Compound 54, 6-(3-(1-(4-fluorophenyl)-1-hydroxy-1,2,4,5-tetrahydro-3H-benzo[d]azepine-3-yl)propionyl)chroman-4-one]: the 50% inhibitory concentration (IC50) (on TDG [1]; in assay [3]) was at most 5 µM in each case. Further, the inhibition at 10 µM on TDG [2] is below 25%.

As for `COc1ccc2c(c1)CN(CCC(=O)c1ccc3c(c1)OCCO3)C2` [Compound 5, 1-(2,3-dihydrobenzo[b][1,4]dioxin-6-yl)-3-(5-methoxyisoindolin-2-yl)propan-1-one], the IC50 (at TDG [1]; in assay [3]) was at most 5 µM throughout. Also, the inhibition at 10 µM on TDG [2] was below 25%.

For `N#Cc1ccc2c(c1)CN(CCC(=O)c1ccc3c(c1)OCCO3)C2` [Compound 8], the concentration for half-maximal inhibition (IC50) was at most 5 µM at TDG [1] and above 5 µM in assay [3]. In addition, the inhibition at 10 µM at TDG [2] is below 25%.

With `N#Cc1ccc(C2CCN(CCC(=O)c3ccc4c(c3)OCCO4)C2)cc1` (stereo not drawn) [Compound 50, 4-(1-(3-(2,3-dihydrobenzo[b][1,4]dioxin-6-yl)-3-oxopropyl)pyrrolidin-3-yl)benzonitrile], the half-inhibitory concentration (IC50) (on TDG [1]; in assay [3]) was at most 5 µM each time. For the same compound, on TDG [2], the inhibition at 10 µM was above 25%.

Consider `O=C(CCN1CCC(O)(c2ccc(F)cc2)C1)c1ccc2c(c1)OCCO2` (stereo not drawn) [Compound 43, 1-(2,3-dihydrobenzo[b][1,4]dioxin-6-yl)-3-(3-(4-fluorophenyl)-3-hydroxypyrrolidine-1-yl)propan-1-one], for which the IC50 (on TDG [1]; in assay [3]) was at most 5 µM throughout. Moreover, the inhibition at 10 µM at TDG [2] is below 25%.

`O=C(CCN1CCOc2ccccc21)c1ccc2c(c1)OCCO2` [Compound 15, 3-(2,3-dihydro-4H-benzo[b][1,4]oxazin-4-yl)-1-(2,3-dihydrobenzo[b][1,4]dioxin-6-yl)propan-1-one]: the IC50 (at TDG [1]; in assay [3]) was above 5 µM throughout. The inhibition at 10 µM on TDG [2] was below 25%.

For the origin of these results see patent publication US20220213070A1, “COMPOUNDS INHIBITING TDG ACTIVITY” (EPITAS BIOSCIENCES (SHANGHAI) CO., LTD., priority 2019, published 2022).
